Experimental data from patent US4111751A, “Method of purifying alcohol dehydrogenase” (President and Fellows of Harvard College, priority 1977, dated 1978).
Each block holds one molecule with its values, some of them ahead of it.

Key:
[1] = target: all other forms of liver alcohol dehydrogenase; assay: inhibition of the other (pyrazole-sensitive) forms of liver alcohol dehydrogenase; format: biochemical, human
From the text: (§1) However, purification of these enzymes has been a complicated and difficult procedure. […] Elution is preferably carried out with pyrazole solution or with a lower alkanol having at least two carbon atoms, e.g., ethanol, 1-propanol, 1-butanol, 1-pentanol, and the like. Further purification and separation of isoenzymes from the bound portion can be achieved by alcohol gradient elution. The alcohol dehydrogenase of the bound portion can be separated from the NAD after elution, if desired, by conventional dialysis procedures. […] The anodic band of liver alcohol dehydrogenase, as identified by Li et al., Biochem. Biophys. Res. Comm.

[2] = target: T1, II-ADH (anodic band of liver alcohol dehydrogenase) (Homo sapiens, UniProt P08319); assay: inhibition of purified II-ADH (anodic band, pyrazole-insensitive liver alcohol dehydrogenase) activity; format: biochemical
T1 construct: Starting with 100 g frozen human liver; from tissue; host or cells: human liver (frozen), purified
From the text: as §1

[3] = tested on: human liver alcohol dehydrogenase; assay: inhibition of alcohol dehydrogenase activity of frozen human liver starting material; format: biochemical; conditions: 33 micromolar, pH 10, frozen human liver
Description: Starting with 100 g frozen human liver having a specific activity at pH 10 of about 0.05 I.U./mg and low inhibition (~ 75%) by 33 micromolar 4-methyl-pyrazole at pH 10 as well as high intensity of stain for the anodic band on starch gel electrophoresis, the liver was homogenized in 2.5 volumes water at 4° C., centrifuged for 30 min. at 30,000 rpm in a 30 rotor to provide 240 ml. of clear supernatant assaying at 58 I.U. of pyrazole-insensitive activity with a specific activity of 0.002 I.U./mg.

[4] = tested on: other forms of liver alcohol dehydrogenase; conditions: read-out: Km for ethanol; cited from earlier work
[5] = target: T1, II-ADH (anodic band of liver alcohol dehydrogenase); format: biochemical; conditions: pH 7.5; read-out: Km for ethanol
From the text: as §1

T1 sequence (P08319 2-380 limits assumed): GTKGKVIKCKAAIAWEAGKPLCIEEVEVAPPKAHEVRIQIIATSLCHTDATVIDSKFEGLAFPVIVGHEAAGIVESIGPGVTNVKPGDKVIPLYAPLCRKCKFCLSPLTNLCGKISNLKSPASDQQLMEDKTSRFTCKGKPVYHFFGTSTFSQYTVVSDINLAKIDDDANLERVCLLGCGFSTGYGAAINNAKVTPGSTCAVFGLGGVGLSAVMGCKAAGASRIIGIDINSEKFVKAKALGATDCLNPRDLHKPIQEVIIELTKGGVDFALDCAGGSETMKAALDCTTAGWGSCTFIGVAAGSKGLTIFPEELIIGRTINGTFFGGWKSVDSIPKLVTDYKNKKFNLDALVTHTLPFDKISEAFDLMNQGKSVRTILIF

Ki ([1]; all other forms of liver alcohol dehydrogenase): < 1 µM
Compound: c1cn[nH]c1 [pyrazole]

inhibition at 200 µM ([2]; 0.2 mM 4-methylpyrazole, 100 mM ethanol, purified II-ADH): < 10%
inhibition ([2]; 33 micromolar, product after agarose-AMP): virtually uninhibited
Vi/Vc ([2]; eluant (effluent) of pyrazole affinity resin containing the anodic band): 95-100%
inhibition [3]: ~ 75%
inhibition of activity ([1]; 0.2 mM 4-methylpyrazole, 100 mM ethanol, remainder of purified enzyme forms): more than 90%
Compound: Cc1cn[nH]c1 [4-methylpyrazole]

Compound: CCO [ethanol]
Km [4]: ≤ 1 mM
Km [5]: 15 to 30 mM
